Assay results as given in ChEMBL document CHEMBL5150066, “Synthesis of estrone selenocyanate Compounds, anti-tumor activity evaluation and Structure-activity relationship analysis” (Bioorg Med Chem, 2022).

Columns and labels:
[1] = system: HeLa; test: Antiproliferative activity against human HeLa cells assessed as inhibition of cell growth incubated for 72 hrs by MTT assay; type: functional, cell-based
[2] = system: SK-OV-3; test: Antiproliferative activity against human SK-OV-3 cells assessed as inhibition of cell growth incubated for 72 hrs by MTT assay; type: functional, cell-based; conditions: SK-OV-3, 72 h
[3] = system: T47D; test: Antiproliferative activity against human T47D cells assessed as inhibition of cell growth incubated for 72 hrs by MTT assay; type: functional, cell-based
[4] = system: MCF7; test: Antiproliferative activity against human MCF7 cells assessed as inhibition of cell growth incubated for 72 hrs by MTT assay; type: functional, cell-based; conditions: MCF7, 72 h
[5] = system: HepG2; test: Antiproliferative activity against human HepG2 cells assessed as inhibition of cell growth incubated for 72 hrs by MTT assay; type: functional, cell-based; conditions: HepG2, 72 h
[6] = Cytotoxicity against HEK293T cells assessed as inhibition of cell growth incubated for 72 hrs by MTT assay; type: toxicity, cell-based, HEK-293T; conditions: human
[7] = Selectivity index, ratio of IC50 for cytotoxicity against HEK293T cells to IC50 for antiproliferative activity against human HepG2 cells; type: toxicity, cell-based; conditions: HEK293T cells versus HepG2 cells, read-out: Ratio IC50
[8] = Potency index, ratio of test compound IC50 to 2-methoxyestradiol IC50 for cytotoxicity against human HEK293T cells assessed as inhibition of cell growth incubated for 72 hrs by MTT assay; type: toxicity, cell-based, HEK-293T; conditions: read-out: Ratio IC50

Row | SMILES | IC50 [1] [µM] | IC50 [2] [µM] | IC50 [3] [µM] | IC50 [4] [µM] | IC50 [5] [µM] | IC50 at 72 h [6] [µM] | selectivity ratio [7] | selectivity ratio at 72 h [8]
1 | C[C@]12CC[C@@H]3c4cc(N)c(O)cc4CC[C@H]3[C@@H]1CCC2=O | > 70 | > 70 | 50.5 | > 70 | 56.3 | 36.4 |  | 
2 | C[C@]12CC[C@@H]3c4ccc(OCC[Se]C#N)cc4CC[C@H]3[C@@H]1CCC2=O | 20.2 | 60.3 |  | 52.3 | > 100 | 51.1 |  | 
3 | COc1ccc2c(c1)CC[C@@H]1[C@@H]2CC[C@]2(C)C(NC(=O)c3ccc(C[Se]C#N)cc3)CC[C@@H]12 (stereo partly specified) | 9.6 | 22.4 | 40.8 | 15.8 | 13.8 | 24.6 |  | 
4 | C[C@]12CC[C@@H]3c4ccc(OCCCCCCCCCCCC[Se]C#N)cc4CC[C@H]3[C@@H]1CCC2=O | 18.2 | 46.6 | 19.7 | 27.5 | > 100 | 16.5 |  | 
5 | COc1ccc2c(c1)CC[C@@H]1[C@@H]2CC[C@]2(C)/C(=N/OC(=O)c3ccc(C[Se]C#N)cc3)CC[C@@H]12 | 21 | 69 | 24.2 | 3.9 | 80.4 | 23.2 |  | 
6 | COc1ccc2c(c1)CC[C@@H]1[C@@H]2CC[C@]2(C)C(OC(=O)c3ccc(C[Se]C#N)cc3)CC[C@@H]12 (stereo partly specified) | 47.5 | 56.3 | > 100 | 55.5 | 35.9 | 29.7 |  | 
7 | COc1cc2c(cc1O)CC[C@@H]1[C@@H]2CC[C@]2(C)[C@@H](O)CC[C@@H]12 [2-METHOXYESTRADIOL] | 8.6 | 16.5 | 25.2 | > 70 | 2.3 | 4.6 |  | 
8 | C[C@]12CC[C@H](O)CC1=CC[C@@H]1[C@@H]2CC[C@]2(C)C(c3cccnc3)=CC[C@@H]12 [ABIRATERONE] | 16.9 | 59.5 | 34.7 | 38.2 | 59.8 | > 100 |  | 

Continued, in another order:

Row | IC50 [1] [µM] | IC50 [2] [µM] | IC50 [3] [µM] | IC50 [4] [µM] | IC50 [5] [µM] | SMILES | IC50 at 72 h [6] [µM] | selectivity ratio [7] | selectivity ratio at 72 h [8]
9 | 56.8 | 52.4 | 41.5 | 88.3 | 61.1 | COc1ccc2c(c1)CC[C@@H]1[C@@H]2CC[C@]2(C)C(OC(=O)C[Se]C#N)CC[C@@H]12 (stereo partly specified) | 45.2 |  | 
10 | 26.8 | 49.5 | 37.4 | 39.2 | 68.9 | C[C@]12CC[C@@H]3c4cc(NC(=O)c5ccc(C[Se]C#N)cc5)c(O)cc4CC[C@H]3[C@@H]1CCC2=O | 27.2 |  | 
11 | 9.4 | 2.6 | 22.8 | 16.6 | 1 | C[C@]12CC[C@@H]3c4cc(NC(=O)C[Se]C#N)c(O)cc4CC[C@H]3[C@@H]1CCC2=O | 15.4 | 15 | 3
12 | 13.7 | 27.7 | 25.1 | 17.2 | 16.1 | C[C@]12CC[C@@H]3c4ccc(O)cc4CC[C@H]3[C@@H]1CCC2NC(=O)c1ccc(C[Se]C#N)cc1 (stereo partly specified) | 13.4 |  | 
13 | 70.4 | 30.5 | 73.4 | 73.4 | 70.4 | C[C@]12CC[C@@H]3c4ccc(O)cc4CC[C@H]3[C@@H]1CCC2NC(=O)C[Se]C#N (stereo partly specified) | 25.4 |  | 
14 | 5.6 | 20.1 | 59.2 | 8 | 42.5 | C[C@]12CC[C@@H]3c4ccc(OCCCCCCCC[Se]C#N)cc4CC[C@H]3[C@@H]1CCC2=O | 8.9 |  | 
15 | 13.7 | 15.6 | 21.8 | 17.3 | 11 | C[C@]12CC[C@@H]3c4cc(NC(=O)CCCC[Se]C#N)c(O)cc4CC[C@H]3[C@@H]1CCC2=O | 18.2 |  | 
16 | 26.3 | 53.4 | 24.2 | 18.8 | 62.5 | COc1ccc2c(c1)CC[C@@H]1[C@@H]2CC[C@]2(C)/C(=N/OC(=O)C[Se]C#N)CC[C@@H]12 | 25.2 |  | 
17 | 13.7 | 14.4 | 24.6 | 9.3 | 31 | C[C@]12CC[C@@H]3c4cc(NC(=O)CCCCCCCCC[Se]C#N)c(O)cc4CC[C@H]3[C@@H]1CCC2=O | 17.2 |  | 
18 | 16.2 | 30.6 | 75.9 | 56.1 | 10.5 | COc1ccc2c(c1)CC[C@@H]1[C@@H]2CC[C@]2(C)C(NC(=O)C[Se]C#N)CC[C@@H]12 (stereo partly specified) | 15 |  | 
19 | 18.2 | 54.6 | > 100 | 48.1 | > 100 | C[C@]12CC[C@@H]3c4ccc(OCCC[Se]C#N)cc4CC[C@H]3[C@@H]1CCC2=O | 43.9 |  | 
20 | 14 | 49.7 | 75.7 | 41.1 | > 100 | C[C@]12CC[C@@H]3c4ccc(OCCCC[Se]C#N)cc4CC[C@H]3[C@@H]1CCC2=O | 42.8 |  | 
